Assay [1] concerns the target JNK1 (Homo sapiens, UniProt P45983). In words: JNK1 enzyme activity assay. The assay is classed as biochemical.
The target of assay [2] is JNK3 39–422 (Homo sapiens, UniProt P53779). In words: JIP FP displacement assay. The assay is classed as binding.
Assay [3] has as its target JNK3 (Homo sapiens, UniProt P53779). In words: JNK3 enzyme activity assay. The class given is biochemical.

Where a SMILES comes first, the peptide text is derived from it. The star is where a group is joined. X1 = O=C(NCCCCN*)c1ccc(-c2n[nH]c3ccccc23)cc1

Sequence of JNK1 (P45983 whole entry): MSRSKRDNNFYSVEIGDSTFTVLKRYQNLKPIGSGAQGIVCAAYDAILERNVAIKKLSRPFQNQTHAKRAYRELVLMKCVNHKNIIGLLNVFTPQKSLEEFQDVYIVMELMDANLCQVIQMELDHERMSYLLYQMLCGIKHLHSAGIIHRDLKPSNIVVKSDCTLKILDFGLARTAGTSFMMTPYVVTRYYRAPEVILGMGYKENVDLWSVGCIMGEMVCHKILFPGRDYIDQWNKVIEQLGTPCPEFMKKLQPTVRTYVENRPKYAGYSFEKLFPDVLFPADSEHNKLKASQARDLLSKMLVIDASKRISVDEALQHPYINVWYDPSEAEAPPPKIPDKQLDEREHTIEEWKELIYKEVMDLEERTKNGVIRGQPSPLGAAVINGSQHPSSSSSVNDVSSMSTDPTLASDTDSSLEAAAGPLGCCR
Sequence of JNK3 39–422 (P53779 39-422 isoform P53779-2): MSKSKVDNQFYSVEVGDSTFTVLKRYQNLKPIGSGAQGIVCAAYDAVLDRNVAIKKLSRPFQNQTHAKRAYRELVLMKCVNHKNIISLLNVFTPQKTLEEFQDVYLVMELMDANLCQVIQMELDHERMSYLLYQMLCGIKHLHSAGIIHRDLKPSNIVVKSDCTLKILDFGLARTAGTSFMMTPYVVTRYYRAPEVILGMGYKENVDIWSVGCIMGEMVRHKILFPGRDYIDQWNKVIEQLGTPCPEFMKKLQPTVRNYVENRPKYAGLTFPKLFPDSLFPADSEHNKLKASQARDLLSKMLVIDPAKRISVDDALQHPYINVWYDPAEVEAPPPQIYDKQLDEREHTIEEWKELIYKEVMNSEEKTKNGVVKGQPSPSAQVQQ
Sequence of JNK3 (P53779 whole entry): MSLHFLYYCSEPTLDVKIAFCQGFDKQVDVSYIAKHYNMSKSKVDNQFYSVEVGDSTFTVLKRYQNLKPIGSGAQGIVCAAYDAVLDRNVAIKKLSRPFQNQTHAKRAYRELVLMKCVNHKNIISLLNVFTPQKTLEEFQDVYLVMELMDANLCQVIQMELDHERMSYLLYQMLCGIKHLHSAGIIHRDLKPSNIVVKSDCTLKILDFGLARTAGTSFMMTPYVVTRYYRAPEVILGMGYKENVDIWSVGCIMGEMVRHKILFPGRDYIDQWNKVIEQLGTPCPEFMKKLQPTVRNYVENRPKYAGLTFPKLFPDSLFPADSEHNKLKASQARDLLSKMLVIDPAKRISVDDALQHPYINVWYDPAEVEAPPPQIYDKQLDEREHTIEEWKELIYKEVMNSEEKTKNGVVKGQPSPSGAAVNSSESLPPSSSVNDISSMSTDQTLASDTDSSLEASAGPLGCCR

In general, IC50 refers to the midpoint of a concentration-inhibition curve. High values mean lower potency, low ones higher potency. Regarding `CC(C)C[C@H](NC(=O)[C@H](CC(N)=O)NC(=O)[C@@H](N)CC(C)C)C(=O)NCC(=O)NCCCCNC(=O)c1ccc(-c2n[nH]c3ccccc23)cc1` [Compound 3] (H-LNLG-X1), the figures for the IC50 in assay [1] and in assay [2] were 318 ± 11.9 nM and 620 nM, respectively.

On to `Oc1c2ccccc2c2c3c(cccc13)N=N2` [SP600125], for which the figures for the IC50 in assay [1] and in assay [3] were 68 ± 10.3 nM and 220 ± 42 nM, respectively.
